Data reported in US10752588B2 (The Broad Institute, Inc., priority 2014, dated 2020).
Where two headings read alike, the source gives them in different places.

Assays:
human D2R/β-arrestin [1] = target: T1, human D2R/β-arrestin (Homo sapiens (Human), UniProt P14416); assay: β-Arrestin agonist assay (PathHunter); assay type: cell-based; conditions: CHO-K1 cell line expressing human D2R/β-arrestin
How it was run: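 Readout follows addition of Buffer:Emerald II:Galactor-Star reagent (19:5:1) to agonist-treated plates, measured as luminescence or fluorescence.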

human D2R/β-arrestin [2] = target: T1, human D2R/β-arrestin; assay: Gi/cAMP agonist assay (Lance Ultra cAMP, Forskolin); assay type: cell-based; conditions: CHO-K1 cell line expressing human D2R/β-arrestin
How it was run: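 Read-out was Lance Ultra competitive TR-FRET (Eu-cAMP tracer plus ULight-anti-cAMP) following forskolin-induced cAMP production. Before forskolin stimulation, compounds were pin-transferred onto the seeded cells for 10 min at 37 °C.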

human D2R/β-arrestin [3] = target: T1, human D2R/β-arrestin; conditions: read-out: cAMP Antagonist
human D2R/β-arrestin [4] = target: T1, human D2R/β-arrestin; assay: cell-based; conditions: β-arrestin Antagonist, CHO-K1 cell line expressing human D2R/β-arrestin; quinpirole used as agonist
human D2R/β-arrestin [5] = target: T1, human D2R/β-arrestin; conditions: read-out: β-arrestin Antagonist
human D2R/β-arrestin [6] = target: T1, human D2R/β-arrestin; assay: cell-based; conditions: cAMP Antagonist, CHO-K1 cell line expressing human D2R/β-arrestin; quinpirole used as agonist
[7] = Microsomal stability, mouse
[8] = CHO-K1 cell line expressing human D2R/β-arrestin, quinpirole used as agonist

T1 sequence (P14416 whole entry): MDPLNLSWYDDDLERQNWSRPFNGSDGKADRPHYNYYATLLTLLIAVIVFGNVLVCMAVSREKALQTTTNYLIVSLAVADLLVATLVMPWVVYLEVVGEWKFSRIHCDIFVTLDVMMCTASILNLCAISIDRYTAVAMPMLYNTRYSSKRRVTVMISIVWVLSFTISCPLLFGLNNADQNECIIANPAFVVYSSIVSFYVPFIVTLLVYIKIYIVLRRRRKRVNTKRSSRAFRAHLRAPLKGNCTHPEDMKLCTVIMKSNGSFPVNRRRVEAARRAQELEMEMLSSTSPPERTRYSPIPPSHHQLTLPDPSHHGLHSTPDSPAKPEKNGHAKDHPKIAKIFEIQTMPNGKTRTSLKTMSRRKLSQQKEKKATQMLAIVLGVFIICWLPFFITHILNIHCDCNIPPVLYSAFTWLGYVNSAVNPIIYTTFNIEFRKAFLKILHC

IC50 (human D2R/β-arrestin [3]; [8]) [nM] | IC50 (human D2R/β-arrestin [4]) [nM] | IC50 (human D2R/β-arrestin [5]; [8]) [nM] | IC50 (human D2R/β-arrestin [6]) [nM] | Microsomal Stability: % remaining after 60 minutes [7] | Structure (SMILES) | EC50 (human D2R/β-arrestin [1]) [nM] | EC50 (human D2R/β-arrestin [2]) [nM] | IC50 (human D2R/β-arrestin [5]) [nM] | IC50 (human D2R/β-arrestin [3]) [nM]
100 to 1000 | 1000 to 10000 |  |  |  | COc1cccc(C(c2ccccn2)N(C)CC2CCN(CCOc3ccccc3F)CC2)c1 (single isomer, unassigned) [Compound 77b, N-((1-(2-(2-fluorophenoxy)ethyl)piperidin-4-yl)methyl)-1-(3-methoxyphenyl)-N-methyl-1-(pyridin-2-yl)methanamine] | > 30000 | > 30000 |  | 
 |  |  |  |  | O=C(NC(c1ccc(F)cc1)c1ccc(Cl)cc1)C1CCN(CCOc2ccccc2)CC1 (single isomer, unassigned) [Compound 42a] | > 30000 | 100 to 1000 | 100 to 1000 | 100 to 1000
> 30000 | 1000 to 10000 |  |  |  | Clc1ccc(C(c2ccccn2)N2CCC3(CCN(CCOc4ccccc4)CC3)C2)cc1 (single isomer, unassigned) [Compound 105b, 2-((4-chlorophenyl)(pyridin-2-yl)methyl)-8-(2-phenoxyethyl)-2,8-diazaspiro[4.5]decane] | 1000 to 10000 | 100 to 1000 |  | 
 |  |  |  |  | O=C(NC(c1ccc(Cl)cc1)c1ccccn1)C1CCN(CCn2ccc(=O)cc2)CC1 (single isomer, unassigned) [Compound 11a] | > 30000 | > 30000 | 100 to 1000 | 1000 to 10000
 |  |  |  |  | O=C(NC(c1ccc(Cl)cc1)c1ccccc1F)C1CCN(CCOc2ccccc2)CC1 (single isomer, unassigned) [Compound 40b, N((4-chlorophenyl)(2-fluorophenyl)methyl)-1-(2-phenoxyethyl) piperidine-4-carboxamide] | > 30000 | 1000 to 10000 | 1000 to 10000 | > 30000
 |  |  |  |  | O=C(NC(c1ccc(F)cc1)c1ccccn1)C1CCN(CCOc2ccccc2C(F)(F)F)CC1 (single isomer, unassigned) [Compound 52a] | > 30000 | > 30000 | 100 to 1000 | < 100
 |  |  |  |  | O=C(NC(c1ccc2c(c1)OCO2)c1ccccn1)C1CCN(CCOc2ccccc2F)CC1 (single isomer, unassigned) [Compound 95a, N-(benzo[d][1,3]dioxol-5-yl(pyridin-2-yl)methyl)-1-(2-(2-fluorophenoxy)ethyl) piperidine-4-carboxamide] | > 30000 | > 30000 | 100 to 1000 | 100 to 1000
 |  |  |  |  | O=C(NC(c1ccc(Cl)cc1)c1ccccc1F)C1CCN(CCOc2ccccc2F)CC1 (single isomer, unassigned) [Compound 96a, N-((4-chlorophenyl)(2-fluorophenyl)methyl)-1-(2-(2-fluorophenoxy)ethyl) piperidine-4-carboxamide] | > 30000 | 1000 to 10000 | 1000 to 10000 | > 30000
 |  |  |  |  | COc1cccc(C(NC(=O)C2CCN(CCOc3ccccc3F)CC2)c2ccccn2)c1 (single isomer, unassigned) [Compound 22a, 1-(2-(2-fluorophenoxy)ethyl)-N-((3-methoxyphenyl)(pyridin-2-yl)methyl) piperidine-4-carboxamide] | > 30000 | 10000 to 30000 | 100 to 1000 | 100 to 1000
 |  |  |  |  | O=C(NC(c1ccc(Cl)cc1)c1ccccn1)C1CCN(CCOc2ccc3cccnc3c2)CC1 (single isomer, unassigned) [Compound 16b] | > 30000 | 1000 to 10000 | > 30000 | > 30000
 |  |  |  |  | O=C(NC(c1ccc(F)cc1)c1ccccn1)C1CCN(CCOc2ccccc2Cl)CC1 (single isomer, unassigned) [Compound 53a, 1-(2-(2-chlorophenoxy)ethyl)-N-((4-fluorophenyl)(pyridin-2-yl)methyl) piperidine-4-carboxamide] | > 30000 | > 30000 | 100 to 1000 | 100 to 1000
 |  |  |  |  | O=C(NC(c1ccc(Cl)cc1)c1ccccn1)C1CCN(CCOc2cc(F)ccc2F)CC1 (single isomer, unassigned) [Compound 14a] | 100 to 1000 | < 100 | 1000 to 10000 | > 30000
 |  |  |  |  | O=C(NC(c1ccc(F)cc1)c1ccc(Cl)cc1)C1CCN(CCOc2ccccc2)CC1 (single isomer, unassigned) [Compound 42b] | > 30000 | 10000 to 30000 | 1000 to 10000 | 1000 to 10000
 |  |  |  |  | O=C(NC(c1ccc(Cl)cc1)c1ccccn1)C1CCN(CCOc2cccc(F)c2)CC1 (single isomer, unassigned) [Compound 4a] | 1000 to 10000 | 100 to 1000 | 1000 to 10000 | > 30000
 |  |  |  |  | CC1(C(=O)NC(c2ccc(F)cc2)c2ccccn2)CCN(CCOc2ccccc2C(F)(F)F)CC1 (single isomer, unassigned) [Compound 70a, N-((4-fluorophenyl)(pyridin-2-yl)methyl)-4-methyl-1-(2-(2-(trifluoromethyl)phenoxy)ethyl) piperidine-4-carboxamide] | > 30000 | > 30000 | < 100 | < 100
 |  |  |  |  | O=C(NC(c1ccc(Cl)cc1)c1ccccn1)C1CCN(CCOc2ccc3cccnc3c2)CC1 (single isomer, unassigned) [Compound 16a] | 1000 to 10000 | < 100 | > 30000 | > 30000
 |  |  |  |  | COc1cccc(C(NC(=O)C2CCN(CCOc3ccccc3)CC2)c2ccccn2)c1 (stereo not drawn) [Compound 35a] | > 30000 | 10000 to 30000 | 10000 to 30000 | 10000 to 30000
100 to 1000 | 1000 to 10000 |  |  |  | Fc1ccccc1C(NCC1CCN(CCOc2ccccc2)CC1)c1ccc(Cl)cc1 (single isomer, unassigned) [Compound 81b, 1-(4-chlorophenyl)-1-(2-fluorophenyl)-N-((1-(2-phenoxyethyl)piperidin-4-yl)methyl)methanamine] | > 30000 | > 30000 |  | 
 |  |  |  |  | O=C(NC(c1ccc(F)cc1)c1ccccn1)C1CCN(CCOc2ccccc2C(F)(F)F)CC1 (single isomer, unassigned) [Compound 52b] | > 30000 | > 30000 | 100 to 1000 | 100 to 1000
 |  |  |  |  | O=C(NC(c1ccc(Cl)cc1)c1ccccn1)C1CCN(CCOc2ccccc2F)CC1 (single isomer, unassigned) [Compound 3a] | > 30000 | > 30000 | 100 to 1000 | 100 to 1000
1000 to 10000 |  | 1000 to 10000 |  |  | c1ccc(OCCN2CCC(CNC(c3ccc4c(c3)OCO4)c3ccccn3)CC2)cc1 (single isomer, unassigned) [Compound 102b, 1-(benzo[d][1,3]dioxol-5-yl)-N-((1-(2-phenoxyethyl)piperidin-4-yl)methyl)-1-(pyridin-2-yl)methanamine] | > 30000 | 1000 to 10000 |  | 
 |  |  |  |  | O=C(NC(c1ccc(Cl)cc1)c1ccccn1)C1CCN(CCn2ccc(=O)cc2)CC1 (single isomer, unassigned) [Compound 11b] | > 30000 | > 30000 | > 30000 | > 30000
 |  |  |  |  | O=C(NC(c1ccc(Cl)cc1)c1ccccc1F)C1CCN(CCOc2ccccc2F)CC1 (single isomer, unassigned) [Compound 96b, N-((4-chlorophenyl)(2-fluorophenyl)methyl)-1-(2-(2-fluorophenoxy)ethyl) piperidine-4-carboxamide] | > 30000 | > 30000 | 100 to 1000 | 100 to 1000
 |  |  |  |  | O=C(NC(c1ccc(Cl)cc1)c1ccccn1)C1CCN(CCOc2ccccc2F)CC1 (single isomer, unassigned) [Compound 3b] | > 30000 | < 100 | 100 to 1000 | > 30000
 |  |  |  |  | O=C(NC(c1ccccc1)c1ccc(F)cc1)C1CCN(CCOc2ccccc2)CC1 (single isomer, unassigned) [Compound 45a] | > 30000 | > 30000 | 100 to 1000 | 100 to 1000
 |  |  |  |  | O=C(NC(c1ccc(Cl)cc1)c1ccccn1)C1CCN(CCOc2cc(F)ccc2F)CC1 (single isomer, unassigned) [Compound 14b] | > 30000 | > 30000 | 100 to 1000 | 1000 to 10000
> 30000 | 100 to 1000 |  |  |  | CC1(C(=O)NC(c2ccc(Cl)cc2)c2ccccn2)CCN(CCOc2ccccc2)CC1 (single isomer, unassigned) [Compound 144b, N-((4-chlorophenyl)(pyridin-2-yl)methyl)-4-methyl-1-(2-phenoxyethyl)piperidine-4-carboxamide] | 100 to 1000 | < 100 |  | 
 |  | 1000 to 10000 | > 30000 | m19% | O=C(NC(c1cccc(OC(F)(F)F)c1)c1ccccn1)C1CCN(CCOc2ccccc2F)CC1 (single isomer, unassigned) [Compound 93b, 1-(2-(2-fluorophenoxy)ethyl)-N-(pyridin-2-yl(3-(trifluoromethoxy)phenyl)methyl)piperidine-4-carboxamide] | > 30000 | 100 to 1000 |  | 
100 to 1000 | 1000 to 10000 |  |  |  | Fc1ccccc1OCCN1CCC(CNC(c2ccc3c(c2)OCO3)c2ccccn2)CC1 (single isomer, unassigned) [Compound 139b, 1-(benzo[d][1,3]dioxol-5-yl)-N-((1-(2-(2-fluorophenoxy)ethyl)piperidin-4-yl)methyl)-1-(pyridin-2-yl)methanamine] | > 30000 | 100 to 1000 |  | 
